System: male Sprague Dawley rats
Assay: Cardiotoxicity Assay (heart-to-body weight ratio)
Type: in vivo, rat
Settings: 250 μg/kg subcutaneously once daily for 28 days, hearts weighed on day 30
From the text: The cardiotoxicity assay measures the potential of a test compound to adversely affect the cardiovascular system. As thyroid hormone (T3) damages the cardiovascular system, the heart enlarges. See, e.g., Gomberg-Maitland et al., “Thyroid hormone and Cardiovascular Disease”, American Heart Journal, Vol. 135(2), pp. 187-196 (1998); Klein and Ojamaa, “Thyroid Hormone and the Cardiovascular System”, Current Opinion in Endocrinology and Diabetes, Vol. 4, pp.341-346 (1997); and Klemperer et al., “Thyroid Hormone Therapy and Cardiovascular Disease”, Progress in Cardiovascular Diseases, Vol. 37 (4), pp. 329-336 (1996). This increases the weight of the heart relative to whole body weight. The cardiotoxicity assay herein below is used to test compounds for potentially adverse cardiac effects by measuring their effect on the heart-to-body weight ratio.
Two groups each of six male Sprague Dawley rats (Harlan Sprague Dawley, Inc., Indianapolis, Ind.) (each weighing from approximately 220 grams to 235 grams) are utilized. The first group is a vehicle control group and the second group is a test compound group. The length of the assay is 30 days, with treatment of vehicle or test compound in vehicle daily for 28 of those days as described below.
Prior to initiation of the assay, each rat is allowed to acclimate to standard environmental conditions for 5 days. […]

## N[C@@H](Cc1cc(I)c(Oc2cc(I)c(O)c(I)c2)c(I)c1)C(=O)O [Example T4, thyroxine]
  cardiac-sparing (index C = RT/RV, heart/body weight ratio of test group over vehicle group; C less than 1.3 = cardiac-sparing): not cardiac-sparine

From patent US6723717B1, “Sulfur-containing thyroxane derivatives and their use as hair growth promotors” (The University of Texas Southwestern Medical Center, priority 1999, dated 2004)
